One assay concerns HEK293T. The assay is described as follows: Induction of BRD4 BD1 domain (unknown origin) degradation expressed in DCAF11 knockout HEK293T cells assessed as decrease in red fluorescence at 1 uM incubated for 12 hrs by dual fluorescence reporter cell based high content imaging analysis. Particulars: Homo sapiens.
Assay [1] addresses T1, DCAF11-BRD4 (Homo sapiens, UniProt O60885+Q8TEB1). The assay is described as follows: PROTAC activity at DCAF11/BRD4 BD1 domain (unknown origin) expressed in HEK293T cells assessed as induction of BRD4 degradation at 1 uM incubated for 12 hrs by Dual fluorescence reporter cell high content imaging analysis relative to control. In kind it is cell-based.
Assay [2] concerns the target T1, DCAF11-BRD4. Description: PROTAC activity at DCAF11/BRD4 in human MDA-MB-231 cells assessed as induction of BRD4 degradation at 10 to 100 nM incubated for 1 hrs by immunoblot analysis. The format is cell-based. Particulars: dose 10-100 nM. On the technique in general: Immunoblotting shows a protein as a band on a membrane.

The source made the active and inactive calls. The rule behind the calls is not given here. Some results are limits rather than exact numbers.

T1 sequence (Q8TEB1 whole entry, looked up, other chains not shown, the tested form may be a part): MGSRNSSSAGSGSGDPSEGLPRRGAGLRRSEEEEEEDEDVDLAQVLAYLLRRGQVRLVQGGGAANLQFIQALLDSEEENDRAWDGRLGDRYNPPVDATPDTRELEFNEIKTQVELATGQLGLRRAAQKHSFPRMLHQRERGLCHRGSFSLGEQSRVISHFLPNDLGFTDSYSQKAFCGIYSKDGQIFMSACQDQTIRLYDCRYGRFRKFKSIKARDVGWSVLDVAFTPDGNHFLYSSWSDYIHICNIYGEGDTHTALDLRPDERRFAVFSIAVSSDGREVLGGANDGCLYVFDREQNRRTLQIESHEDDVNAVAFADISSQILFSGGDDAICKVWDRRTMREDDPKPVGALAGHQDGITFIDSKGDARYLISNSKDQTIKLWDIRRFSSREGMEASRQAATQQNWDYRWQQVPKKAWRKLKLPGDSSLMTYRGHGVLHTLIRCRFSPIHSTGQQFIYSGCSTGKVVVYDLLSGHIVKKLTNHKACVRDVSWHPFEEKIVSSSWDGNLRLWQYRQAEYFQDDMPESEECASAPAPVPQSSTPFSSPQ

On to `Cc1sc2c(c1C)C(c1ccc(Cl)cc1)=N[C@@H](CC(=O)NCCCOCCOCCOCCCNC(=O)COc1ccc(Br)cc1/C=C1\C(=O)Nc3cc(C(F)(F)F)ccc31)c1nnc(C)n1-2`, for which the outcome in the assay with HEK293T was inactive.
Regarding `Cc1sc2c(c1C)C(c1ccc(Cl)cc1)=N[C@@H](CC(=O)NCCCOCCOCCOCCCNC(=O)c1ccsc1/C=C1/C(=O)Nc3cc(C(F)(F)F)ccc31)c1nnc(C)n1-2`, the outcome with HEK293T was inactive.
Still for that read-out and setting: then `Cc1sc2c(c1C)C(c1ccc(Cl)cc1)=N[C@@H](CC(=O)NCCCOc1c(Br)cc(Br)c(/C=C3/C(=O)Nc4cc(C(F)(F)F)ccc43)c1Br)c1nnc(C)n1-2`, with “inactive”.
Turning to `Cc1sc2c(c1C)C(c1ccc(Cl)cc1)=N[C@@H](CC(=O)NCCCOc1ccc(Br)cc1/C=C1/C(=O)Nc3cc(C(F)(F)F)ccc31)c1nnc(C)n1-2`, the outcome in the assay with HEK293T was inactive. The Activity at DCAF11-BRD4 [1] is greater than 35%.
As to `Cc1sc2c(c1C)C(c1ccc(Cl)cc1)=N[C@@H](CC(=O)NCCCOc1cccc(/C=C3/C(=O)Nc4cc(C(F)(F)F)ccc43)c1)c1nnc(C)n1-2`, in the assay with HEK293T, the result was inactive. The Activity on DCAF11-BRD4 [1] was greater than 35%.
In the case of `Cc1ccc(OCC(=O)NCCCOCCOCCOCCCNC(=O)C[C@@H]2N=C(c3ccc(Cl)cc3)c3c(sc(C)c3C)-n3c(C)nnc32)c(/C=C2\C(=O)Nc3ccc(Br)cc32)c1` (stereo in doubt), the result in the assay on HEK293T was inactive. In addition, at DCAF11-BRD4 [1], the Activity was greater than 35%.
As for `Cc1ccc(OCC(=O)NCCCOCCOCCOCCCNC(=O)C[C@@H]2N=C(c3ccc(Cl)cc3)c3c(sc(C)c3C)-n3c(C)nnc32)c(/C=C2\C(=O)Nc3ccc(Cl)cc32)c1` (stereo in doubt), the outcome at DCAF11-BRD4 [2] was Active. In the assay with HEK293T, the outcome was inactive. For the same compound, the Activity on DCAF11-BRD4 [1] is greater than 35%.
The corresponding values for `Cc1ccc(OCC(=O)NCCCOCCOCCOCCCNC(=O)C[C@@H]2N=C(c3ccc(Cl)cc3)c3c(sc(C)c3C)-n3c(C)nnc32)c(/C=C2\C(=O)Nc3ccc(F)cc32)c1` (stereo in doubt) are “Active”, “inactive” and greater than 35%.
As for `Cc1ccc(OCC(=O)NCCOCCOCCOCCOCCNC(=O)C[C@@H]2N=C(c3ccc(Cl)cc3)c3c(sc(C)c3C)-n3c(C)nnc32)c(/C=C2/C(=O)Nc3cc(C(F)(F)F)ccc32)c1` (stereo in doubt), in the assay with HEK293T, the outcome was inactive. In addition, the Activity on DCAF11-BRD4 [1] is greater than 35%.
As for `Cc1sc2c(c1C)C(c1ccc(Cl)cc1)=N[C@@H](CC(=O)NCCCOCCOCCOCCCNC(=O)COc1ccc(/C=C3/C(=O)Nc4cc(C(F)(F)F)ccc43)nc1)c1nnc(C)n1-2` (stereo in doubt), the outcome on DCAF11-BRD4 [2] was Active. For the same compound, the outcome with HEK293T was inactive. In addition, the Activity on DCAF11-BRD4 [1] is greater than 35%.
As to `Cc1sc2c(c1C)C(c1ccc(Cl)cc1)=N[C@@H](CC(=O)NCCCOCCOCCOCCCNC(=O)COc1ccc(/C=C3/C(=O)Nc4ccc(Br)cc43)cc1)c1nnc(C)n1-2` (stereo in doubt), the outcome at DCAF11-BRD4 [2] was Active. In addition, in the assay with HEK293T, the result was inactive. Further, on DCAF11-BRD4 [1], the Activity was greater than 35%.
`Cc1sc2c(c1C)C(c1ccc(Cl)cc1)=N[C@@H](CC(=O)NCCCOCCOCCOCCCNC(=O)COc1ccc(/C=C3/C(=O)Nc4ccc(Cl)cc43)cc1)c1nnc(C)n1-2` (stereo in doubt): the Activity at DCAF11-BRD4 [1] was greater than 35%.
In the case of `Cc1sc2c(c1C)C(c1ccc(Cl)cc1)=N[C@@H](CC(=O)NCCCOCCOCCOCCCNC(=O)COc1ccc(/C=C3/C(=O)Nc4ccc(F)cc43)cc1)c1nnc(C)n1-2` (stereo in doubt), the result in the assay on HEK293T was inactive. Moreover, the Activity on DCAF11-BRD4 [1] is greater than 35%.
The matching figures for `Cc1sc2c(c1C)C(c1ccc(Cl)cc1)=N[C@@H](CC(=O)NCCCOc1c(Br)cc(/C=C3/C(=O)Nc4cc(C(F)(F)F)ccc43)cc1Br)c1nnc(C)n1-2` (stereo in doubt): “inactive” and greater than 35%.

Source of the values: ChEMBL document CHEMBL6078642, “Design, Synthesis, and Activity Evaluation of BRD4 PROTAC Based on Alkenyl Oxindole-DCAF11 Pair” (J Med Chem, 2024).
